Converted amounts (≈) assume the structure as drawn.
Key:
[1] = tested on: K. pneumoniae M6; experiment: MIC, microdilution broth method; format: cell-based, Klebsiella pneumoniae; details: for potentiation of MIC by PMBN: MIC –PMBN vs +PMBN; for MIC: Klebsiella pneumoniae, ciprofloxacin-sensitive strain (S)
[2] = tested on: E. coli LEC001; experiment: MIC, microdilution broth method; format: cell-based, Escherichia coli; details: for MIC: Escherichia coli
Experimental: (§1) The antibacterial activities of the synthesized fluoroquinolones were evaluated against a panel of Gram-negative pathogens including K. pneumoniae (NCTC 13368, M6), Acinetobacter baumannii (AYE, ATCC 17978), Pseudomonas aeruginosa (PAO1, NCTC 13437), and Escherichia coli (NCTC 12923, LEC001). The ability of molecules to permeate the Gram-negative outer membrane was investigated by adding membrane permeabilizer polymyxin B nonapeptide (PMBN) at sub-inhibitory concentrations (Table 2). Phenylalanine–arginine β-naphthylamide (PAβN) was used to investigate efflux of compounds by resistance–nodulation–division (RND)-family efflux pumps (Table 3).
(§2) Minimal inhibitory concentrations (MICs) were determined using the microdilution broth method. Briefly, compounds were added to the first two columns of a 96-well plate and diluted two-fold down the plate in tryptic soy broth. Overnight cultures of bacteria were then adjusted to a concentration of 1 × 10^6 CFU/mL and added to each well for a final concentration of 5 × 10^5 CFU/mL.

[3] = tested on: E. coli NCTC 12923; experiment: MIC, microdilution broth method; format: cell-based, Escherichia coli; details: for MIC: Escherichia coli, ciprofloxacin-sensitive strain (S)
[4] = tested on: A. baumannii AYE; experiment: MIC, microdilution broth method; format: cell-based, Acinetobacter baumannii; details: for MIC: Acinetobacter baumannii
Experimental: as §1, §2

[5] = tested on: P. aeruginosa PAO1; experiment: MIC, microdilution broth method; format: cell-based, Pseudomonas aeruginosa; details: for potentiation of MIC by PMBN: MIC –PMBN vs +PMBN; for MIC: Pseudomonas aeruginosa, ciprofloxacin-sensitive strain (S)
[6] = tested on: P. aeruginosa NCTC 13437; experiment: MIC, microdilution broth method; format: cell-based, Pseudomonas aeruginosa; details: Pseudomonas aeruginosa
Experimental: as §1, §2

[7] = tested on: A. baumannii ATCC 17978; experiment: MIC, microdilution broth method; format: cell-based, Acinetobacter baumannii; details: for MIC: Acinetobacter baumannii, ciprofloxacin-sensitive strain (S); for potentiation of MIC by PMBN: MIC –PMBN vs +PMBN
[8] = tested on: K. pneumoniae NCTC 13368; experiment: MIC, microdilution broth method; format: cell-based, Klebsiella pneumoniae; details: for MIC: Klebsiella pneumoniae, ciprofloxacin-resistant strain (R)
Experimental: as §1, §2

[9] = tested on: panel of Gram-negative pathogens; experiment: MIC panel, statements across strains; format: cell-based, K. pneumoniae, A. baumannii, P. aeruginosa, E. coli; details: versus ciprofloxacin
Experimental: as §1, §2

[10] = LEC001, +PMBN (30 μg/mL), ciprofloxacin-resistant strain (R)
[11] = LEC001, –PMBN, ciprofloxacin-resistant strain (R)
[12] = +PMBN (30 μg/mL), ciprofloxacin-resistant strain (R)
[13] = –PMBN, ciprofloxacin-resistant strain (R)
[14] = PAβN, text names A. baumannii only
[15] = NCTC13437, +PMBN (30 μg/mL), ciprofloxacin-resistant strain (R)
[16] = NCTC13437, –PMBN, ciprofloxacin-resistant strain (R)

Row | potentiation of MIC by PMBN [1] | MIC [2, 10] | MIC [2, 11] | MIC ([3]; NCTC12923, +PMBN (30 μg/mL)) | MIC ([3]; NCTC12923, –PMBN) | MIC [4, 12] | MIC [4, 13] | potentiation of MIC by PMBN [5] | MIC [6, 15] | MIC [6, 16] | MIC ([7]; ATCC17978, +PMBN (30 μg/mL)) | MIC ([7]; ATCC17978, –PMBN) | potentiation of MIC by PMBN [7] | MIC ([1]; M6, +PMBN (30 μg/mL)) | MIC ([1]; M6, –PMBN) | MIC ([5]; PAO1, +PMBN (30 μg/mL)) | MIC ([5]; PAO1, –PMBN) | MIC ([8]; NCTC13368, +PMBN (30 μg/mL)) | MIC ([8]; NCTC13368, –PMBN) | Compound | other results
1 | 1 fold | 32 µg/mL (≈ 96.6 µM) | 16 µg/mL (≈ 48.3 µM) | 0.03 to 0.06 µg/mL (≈ 0.0905 to 0.181 µM) | ≤ 0.03 µg/mL | > 32 µg/mL | > 32 µg/mL | 4–16 fold | 16 µg/mL (≈ 48.3 µM) | > 32 µg/mL | 0.5 µg/mL (≈ 1.51 µM) | 0.5 µg/mL (≈ 1.51 µM) | 1–2 fold | – | – | – | – | – | – | O=C(O)c1cn(C2CC2)c2cc(N3CCNCC3)c(F)cc2c1=O [Compound 6a, ciprofloxacin, reference compound] | effect of PAβN on MIC ([1]; RND-family efflux inhibitor PAβN): not evident; MIC ([2]; LEC001, +PAβN (25 μg/mL), Table 3, strain R): 32 µg/mL (≈ 96.6 µM); MIC ([2]; LEC001, –PAβN, Table 3, strain R): 16 µg/mL (≈ 48.3 µM); effect of PAβN on MIC ([2]; PAβN, text names E. coli only): No effect; effect of PAβN on MIC ([3]; PAβN, text names E. coli only): No effect; MIC ([4]; +PAβN (25 μg/mL), Table 3, strain R): > 32 µg/mL; MIC ([4]; –PAβN, Table 3, strain R): 32 µg/mL (≈ 96.6 µM); effect of PAβN on MIC [4, 14]: Neither ciprofloxacin nor compound 6e showed any difference in MIC; MIC ([6]; NCTC13437, +PAβN (25 μg/mL), Table 3, strain R): 16 µg/mL (≈ 48.3 µM); MIC ([6]; NCTC13437, –PAβN, Table 3, strain R): 32 µg/mL (≈ 96.6 µM); effect of PAβN on MIC [7, 14]: Neither ciprofloxacin nor compound 6e showed any difference in MIC
2 | 1 fold | > 32 µg/mL | > 32 µg/mL | 0.125 µg/mL (≈ 0.391 µM) | 0.125 µg/mL (≈ 0.391 µM) | > 32 µg/mL | > 32 µg/mL | 4–16 fold | 32 µg/mL (≈ 100 µM) | > 32 µg/mL | 4 µg/mL (≈ 12.5 µM) | 8 µg/mL (≈ 25.1 µM) | 1–2 fold | 0.5 µg/mL (≈ 1.57 µM) | 0.25 to 0.5 µg/mL (≈ 0.783 to 1.57 µM) | 0.5 µg/mL (≈ 1.57 µM) | 2 to 4 µg/mL (≈ 6.26 to 12.5 µM) | 2 µg/mL (≈ 6.26 µM) | 4 µg/mL (≈ 12.5 µM) | CCn1cc(C(=O)O)c(=O)c2cc(F)c(N3CCNCC3)cc21 [Compound 6b, norfloxacin, reference compound] | potentiation of MIC by PMBN ([8]; MIC –PMBN vs +PMBN): 2 fold
3 | – | > 32 µg/mL | > 32 µg/mL | 0.5 µg/mL (≈ 1.31 µM) | 1 to 2 µg/mL (≈ 2.62 to 5.24 µM) | > 32 µg/mL | > 32 µg/mL | – | 32 µg/mL (≈ 83.9 µM) | > 32 µg/mL | 4 µg/mL (≈ 10.5 µM) | 4 to 8 µg/mL (≈ 10.5 to 21 µM) | – | 1 µg/mL (≈ 2.62 µM) | 1 µg/mL (≈ 2.62 µM) | 0.5 µg/mL (≈ 1.31 µM) | 8 µg/mL (≈ 21 µM) | 4 µg/mL (≈ 10.5 µM) | 16 µg/mL (≈ 41.9 µM) | O=C(O)c1cn(Cc2ccccc2)c2cc(N3CCNCC3)c(F)cc2c1=O [Compound 6c] | antibacterial activity [9]: limited activity
